In a melting point compilation (Tetko et al.; mined from patent text by program, amines drawn as free bases though some values may be those of a salt):

Compound | melting point [°C]
c1ccc(-c2cc3nc(N4CCOCC4)c4ccccc4c3nn2)cc1 | 214 to 216
BrCCOc1ccc(Cn2cccn2)cc1 | 63 to 65
c1ccc2nc(COc3ccc4[nH]ccc4c3)ccc2c1 | 134 to 137
CC(C)(C)C(NC(=O)CCc1ccccc1)Nc1c(Nc2cccnc2Cl)c(=O)c1=O (stereo unspecified) | 160 to 161
O=C(NCCCc1ccncc1)N(CCCC(F)(F)F)CCC12CC3CC(CC(C3)C1)C2 | 143 to 145
CC(=O)OCc1c(C(=O)C(=O)O)c2cc(-c3cccc(C)c3)ccc2n1Cc1ccc(C)cc1 | 89 to 90
CCCc1c(C(=O)C(C)C)c2ccc(C(N)=O)cc2n1Cc1ccccc1Br | 173 to 174
O=C1C=C(Nc2ccccc2F)CCC1 | 116 to 118
CN1Cc2c(C(N)=NO)ncn2-c2ccc(F)c(Cl)c2C1=O | 228 to 231
Cc1onc(-c2ccccc2)c1-c1[nH]c2ccccc2c1CCN(C)C | 142 to 144
O=C(O)CCP(=O)(O)CCC(=O)O | 156 to 159
CCn1nnc2cc3c(N4CCN(C(=O)Nc5ccc(Oc6ccccc6)cc5)CC4)ncnc3cc21 | 167 to 168
COc1cc(Cc2cnc(N)nc2N)cc(-c2ccc(N(C)C)cc2)c1OC | 230
COc1ccc2c(c1)C(=NO)c1c-2cnc2ccccc12 | 270 to 271
CCC(C)(N=NC(C)(CC)NC(=O)NNC(C)(C)C)NC(=O)NNC(C)(C)C (stereo unspecified) | 155 to 160
O=c1nc(-c2cccc(CSc3ccncc3)n2)sc2ccccc12 | 182
O=c1[nH]c2ccccc2c(=O)n1CCCCN1CCC(OC(c2ccccc2)c2ccccc2)CC1 | 140 to 142
COc1c(C=C[N+](=O)[O-])cc2c(c1OC)CCC2 | 104
CC(C)c1cccc(C(C)C)c1NC(=O)N(Cc1ccc(N(C)C)cc1)c1ccc(F)cc1 | 124 to 125
CS(=O)(=O)CCN1C(=O)CN=C(c2ccccc2F)c2cc(Cl)ccc21 | 155 to 156
COC(=O)[C@H](Cc1ccc(O[Si](C)(C)C(C)(C)C)cc1)NC(=O)Nc1n[nH]c(=S)s1 | 139 to 142
BrCc1cc2ccccc2s1 | 107 to 109
CC(NC(=O)CCCl)c1ccc(Cl)cc1 (stereo unspecified) | 86 to 91

Compound | melting point [°C]
COC(=O)c1ccc2c(c1)NC(=O)C(C)O2 (stereo unspecified) | 156 to 159
COc1ccc(CC2CNC(=O)N2)cc1OC1CCCC1 (stereo unspecified) | 107 to 111
CON=C(C)C(=NOC)C(C)=NOCc1ccccc1CON=CC(=O)OC | 105
COc1ccc(C(=O)Nc2ccccc2)cc1NCc1ccc(N(C)C)cc1 | 195 to 197
Cn1ccc2ccccc2c(=NO)c1=O | 225 to 226
CN1C(=O)C2=C(c3ccc(Br)cc3)OC(=O)C2=C1c1ccccc1 | 215 to 216
c1ccc2cc3[nH]c(SCc4ncc[nH]4)nc3cc2c1 | 172
OCCNC(c1ccccc1)(c1ccccc1)c1ccccc1 | 94 to 97
CCCC(=O)OC1(C(C)=O)C(C)CC2C3CCC4=CC(=O)C=CC4(C)C3(Cl)C(=O)CC21C (stereo unspecified) | 154 to 155
CN(C(=O)OC(C)(C)C)c1cc(Oc2ccccc2N2CCCC2)ccc1N | 136 to 138
O=C(Nc1nncs1)c1sc(Nc2ccccc2)c2c1CCc1cnoc1-2 | 227 to 229
CCCC(=O)NCc1cccc2c1CN(C1CCC(=O)NC1=O)C2=O (stereo unspecified) | 244 to 246
CCn1cc(C(=O)Nc2nccs2)c2ccc(Cl)cc21 | 234 to 236
Cc1onc(NS(=O)(=O)c2cc(-c3ncccn3)ccc2-c2ccccc2CN(C)C(=O)CC(C)(C)C)c1C | 120 to 128
CC1CCCCN1C(=O)C1Cc2ccccc2N1c1ccc(=O)n(C)n1 (stereo unspecified) | 96 to 98
CN(C)c1ccc(S(=O)c2ccccc2)cc1[N+](=O)[O-] (stereo unspecified) | 125 to 126
O=C(O)c1ccc(OCc2ccccc2)cc1OCc1ccccc1 | 123 to 124
CCCc1c2c(c(O)c3c(=O)cc(C(=O)O)oc13)C(O)CCC2 (stereo unspecified) | 245 to 249
NC(=O)N(O)CCNC(=O)c1ccc(-c2ccccc2)cc1 | 160 to 162
N#Cc1cccc(Oc2ncccc2O)c1 | 130 to 133
Cc1ccnc(-c2cncc(OC3SCC(O)C(O)C3O)c2)c1 (stereo unspecified) | 166
CCCCCCCCCCCCc1c[nH]c(C(=O)OC)c1 | 68 to 69
COC(=O)c1ccc(OC)c(OC)c1N | 66 to 67

Compound | melting point [°C]
COC12CC(C)(C)C(OC(C)=O)C(C=C1C)O2 (stereo unspecified) | 54 to 55
CNC(=O)N(O)Cc1cccc(Nc2ccccc2C(=O)OC)c1C | 173 to 175
CCN1C(=O)C(C)(C)C(=O)N(C)c2cc(CCCN(CCn3ccc4ccoc4c3=O)Cc3cccnc3C)ccc21 | 106 to 115
CCN(C(=O)NC)c1ccc(Cl)nc1 | 135 to 136
CCOC(=O)C(=Cc1cccc2ccccc12)c1csc(N)n1 | 155 to 157
C[C@@H](Cn1ncc2ccc3oc(C(N)=O)nc3c21)N=[N+]=[N-] | 162 to 164
CCCn1c(-c2ccccc2)nc2cc(CO)ccc21 | 113
CCCN(CCC)C(=O)C(CO)Nc1nc(-c2ccccc2)nc2c1CCCC2 (stereo unspecified) | 119 to 120
CCOc1nn(-c2ccccn2)cc1CCCOc1ccc(CCC(=O)O)cc1OC | 92 to 93
C=Cc1nc(C#N)c(C#N)n1CC | 66 to 70
Cc1cc([N+](=O)[O-])ccc1C(=O)N=CN(C)C | 118 to 121
N#Cc1c(N2CCc3ccccc3CC2)ncn(CCO)c1=O | 167 to 171
O=C(O)CCc1cn(Cc2ccc(OCc3csc(-c4ccccn4)n3)cc2)cc1-c1ccccc1 | 117 to 118
COc1cc2c(cc1OC)C(=O)C(CN1CCC3(CC1)C(=O)NCN3c1ccccc1)C2 (stereo unspecified) | 174 to 177
Cc1cccc(C(=O)NC(NC(=NC#N)Nc2cccnc2)C(C)(Cl)Cl)c1 (stereo unspecified) | 171 to 172
COC(=O)c1ccccc1-c1ccc(Cc2nc(-c3ccccc3)nc3ccccc23)cc1 | 120 to 121
CC(=O)OC1CSC(Oc2cccnc2C(C)=O)C(OC(C)=O)C1OC(C)=O (stereo unspecified) | 168
N#Cc1ccccc1N1CCN(CNC(=O)c2cccc(Cl)c2)CC1 | 143 to 146
COc1ccc(N2C(=O)[C@@H](OC(C)=O)[C@H]2c2ccccc2)cc1 (relative stereo) | 163
O=C(O)CC1CCC(N2CCN(c3ccncc3)CC2)CC1 (stereo unspecified) | 225 to 227
COC(=O)Cc1cc(N=O)c2[nH]ccc2c1 | 110 to 111
Nc1nc2c(c(Nc3ccc(Br)cc3)n1)-c1ccccc1C2 | 214 to 215
CCOc1ccc(O)c(C(C)(C)C)c1 | 96 to 98

The next lines start with the values.

melting point [°C] | Compound
258 to 261 | COc1c(N2CCC(=NO)CC2)c(F)cc2c(=O)c(C(=O)O)cn(C3CC3)c12
253 to 255 | Oc1ccc(-c2nc3cc(O)ccc3o2)c(Cl)c1
128 to 129 | Cc1nccn1-c1nc(-c2ccc(Cl)cc2)c(CCCO)o1
116 | CC#CCn1c(=N)sc2cc(OC(F)(F)F)ccc21
298 to 301 | Cc1cn(-c2nc(Nc3cccc(NS(C)(=O)=O)c3)nc3[nH]cnc23)cn1
167 to 169 | Fc1cccc(F)c1-c1cnc(-c2ccc(Br)cc2)nn1
72 to 74.5 | Cc1c(Cl)c(C(F)(F)F)nn1-c1cc(OS(C)(=O)=O)c(Cl)cc1F
96 to 100 | CC(=O)N1CCC(Oc2ccc(C(F)(F)F)cc2)(c2ccccc2)CC1
271 to 272 | CSc1ccc2ncn(/C=C/C(=O)O)c(=O)c2c1
125 | FC(F)(F)c1ccc(-c2nccc(CBr)n2)cc1
241 to 243 | COc1cc2cc3c(ccc4cc(Cl)ccc43)nc2cc1OC
255 to 256 | C[C@H]1CN(c2c(F)c(F)c3c(=O)c(C(=O)O)cn(C4CC4)c3c2F)C[C@H]1N (relative stereo)
90 | CCOCc1nc2c(N)nc3ccc(OCc4ccccc4)cc3c2n1CC(C)(C)NS(C)(=O)=O
115 to 116 | CC(C)(OCc1nn(Cc2ccccc2)c2ccccc12)C(=O)NO
138 | CC(C)(CO)NS(=O)(=O)c1cccc(Br)c1
138 to 140 | Cc1onc(-c2ccccc2)c1-c1ccc(S(=O)(=O)NC(=O)CC(C)(C)S)cc1

melting point [°C] | Compound
98 to 109 | O=c1c2c(N3CCNCC3)cc(Cl)cc2n(Cc2ccccc2)c(=O)n1Cc1ccccc1F
266 to 267 | CC(C)NC1=NS(=O)(=O)c2cc(Cl)cc([N+](=O)[O-])c2N1
155 to 157 | COc1ccc(S(=O)(=O)Oc2ccn3nc(-c4ccccc4)c(-c4ccc(=O)n(C(C)C)n4)c3c2)cc1
112 to 114 | Cc1c(F)cc(C(=O)NC2CC2)cc1I
161 | Cc1ccc(S(=O)(=O)Oc2ccc(S(=O)(=O)Cc3cccnn3)cc2)cc1
128 to 130 | Cc1c2c(cnc3ccccc32)nn1-c1ccccc1
141 to 144 | CCN1Cc2ccccc2C(=O)c2cc(CC(=O)O)ccc21
> 260 | COc1cccc2c1C(=O)c1sc(-c3ccccc3)nc1C2=O
131 to 135 | COc1ccc(C(=O)Nc2ccc(F)cc2)cc1NS(=O)(=O)c1ccc(C#N)cc1
152 | COc1cc2c(cc1OC)CN(CCc1cccc(NC(=O)c3cccc4c(=O)c5cccc(OC)c5[nH]c34)c1)CC2
103 to 104 | CCCc1nn(C)c(C(N)=O)c1NC(=O)c1sccc1OCC
219 to 220 | O=C(NC1c2sc([N+](=O)[O-])cc2OCC1O)c1ccc(C(F)(F)F)cc1 (stereo unspecified)
233 to 234 | O=C1COc2ccc(C3=C(c4ccc(Cl)cc4Cl)C(=O)OC3)cc2N1
196 to 197 | CCn1c(=O)c2c(nc(/C=C/c3ccc(OC)c(C)c3OC)n2C)n(CC)c1=O
215 to 216 | Cn1c(C(F)(F)F)cc(=O)n(-c2c(F)cc(Cl)c3cc(-c4ccccc4)oc23)c1=O
145 to 147 | CCC(=O)NCCC1c2cc(OC)ccc2-c2ccc3c(c21)OCO3 (stereo unspecified)
